Literature values as cited in PubChem BioAssay AID1259409 (Chemical Carcinogenesis Research Information System (CCRIS), 2018).

Test system: rodent chemically induced tumor inhibition, incidence and multiplicity
Assay: CCRIS tumor inhibitor studies
Settings: Dose [Inhibitor]: 0, Route [Inhibitor]: ORAL, Species: RAT, Promoter: NONE USED

C[C@]12CC[C@H](O)CC1=CC[C@@H]1[C@@H]2CC[C@]2(C)C(=O)CC[C@@H]12
tumour outcome (control, treated, inhibition, significance) (Carcinogen: DIETHYLNITROSAMINE, 55-18-5, N-METHYL-N-NITROSOUREA, 684-93-5, N-BUTYL-N-(4-HYDROXYBUTYL)NITROSAMINE, 3817-11-6, 1,2-DIM, Carcinogen: DIETHYLNITROSAMINE, 55-18-5, N-METHYL-N-NITROSOUREA, 684-93-5, N-BUTYL-N-(4-HYDROXYBUTYL)NITROSAMINE, 3817-11-6, 1,2-DIM, 0.3% IND DIET FOR 23 WK BEGINNING 1 WK POST CARCINOGEN TREATMENT (STUDY DURATION: 28 WK), Strain/Sex: F344/MALE, Target Tissue: Type of Lesion: URINARY BLADDER: PAPILLOMA, Dose [Carcinogen]: 100 MG/KG BW DEN ONCE, 20 MG/KG BW MNU ONCE ON DAYS 6,9, AND 12, 0.05% BBN IN DRINKING WATER FOR FIRST TWO WK, 40 MG/KG, Dose [Carcinogen]: 100 MG/KG BW DEN ONCE, 20 MG/KG BW MNU ONCE ON DAYS 6,9, AND 12, 0.05% BBN IN DRINKING WATER FOR FIRST TWO WK, 40 MG/KG): 2/20 (10%), 1/20 (5%), 50%, not significant | outcome (Carcinogen: DIETHYLNITROSAMINE, 55-18-5, N-METHYL-N-NITROSOUREA, 684-93-5, N-BUTYLY-N-(4-HYDROXYBUTYL)NITROSAMINE, 3817-11-6, 1,2-DI, Carcinogen: DIETHYLNITROSAMINE, 55-18-5, N-METHYL-N-NITROSOUREA, 684-93-5, N-BUTYLY-N-(4-HYDROXYBUTYL)NITROSAMINE, 3817-11-6, 1,2-DI, 0.3% IN DIET FOR 23 WK BEGINNING 1 WK POST CARCINOGEN TREATMENT (STUDY DURATION: 28 WK), Strain/Sex: F344/MALE, Target Tissue: Type of Lesion: LIVER: CARCINOMA, Dose [Carcinogen]: 100 MG/KG BW DEN ONCE, 20 MG/KG BW MNU ONCE ON DAYS 6,9, AND 12, 0.05% BBN IN DRINKING WATER FOR FIRST TWO WK, 40 MG/KG, Dose [Carcinogen]: 100 MG/KG BW DEN ONCE, 20 MG/KG BW MNU ONCE ON DAYS 6,9, AND 12, 0.05% BBN IN DRINKING WATER FOR FIRST TWO WK, 40 MG/KG): 0/20 (0%), 2/20 (10%), 100%, not significant | tumour outcome (control, treated, inhibition, significance) (Carcinogen: DIETHYLNITROSAMINE, 55-18-5, N-METHYL-N-NITRSOUREA, 684-93-5, N-BUTYL-N-(4-HYDROXYBUTYL)NITROSAMINE, 3817-11-6, 1,2-DIME, Carcinogen: DIETHYLNITROSAMINE, 55-18-5, N-METHYL-N-NITRSOUREA, 684-93-5, N-BUTYL-N-(4-HYDROXYBUTYL)NITROSAMINE, 3817-11-6, 1,2-DIME, 0.3% IN DIET FOR 23 WK BEGINNING 1 WK POST CARCINOGEN TREATMENT (STUDY DURATION :28 WK), Strain/Sex: F344/MALE, Target Tissue: Type of Lesion: LARGE INTESTINE: ADENOCARCINOMA, Dose [Carcinogen]: 100 MG/KG BW DEN ONCE, 20 MG/KG BW MNU ONCE ON DAYS 6,9, AND 12, 0.05% BBN IN DRINKING WATER FOR FIRST TWO WK, 40 MG/KG, Dose [Carcinogen]: 100 MG/KG BW DEN ONCE, 20 MG/KG BW MNU ONCE ON DAYS 6,9, AND 12, 0.05% BBN IN DRINKING WATER FOR FIRST TWO WK, 40 MG/KG): 2/20 (10%), 0/20 (0%), 100%, not significant | tumour outcome (control, treated, inhibition, significance) (Carcinogen: DIMETHYLNITROSAMINE, 62-75-9, 0.6% IN DIET BEGINNING 2 WK POST CARCINOGEN DOSE AND CONTINUING FOR 26 WK (STUDY DURATION: 120 WK), Strain/Sex: WISTAR/MALE, Target Tissue: Type of Lesion: KIDNEY: ADENOCARCINOMA, Dose [Carcinogen]: 30 MG/KG ONCE): 12/30 (40%), 24/31 (77%), -93%, p<0.01 | tumour outcome (control, treated, inhibition, significance) (Carcinogen: DIMETHYLNITROSAMINE, 62-75-9, 0.6% IN DIET BEGINNING 2 WK POST CARCINOGEN DOSE AND CONTINUING FOR 26 WK (STUDY DURATION: 120 WK), Strain/Sex: WISTAR/MALE, Target Tissue: Type of Lesion: KIDNEY: ADENOMA, Dose [Carcinogen]: 30 MG/KG ONCE): 12/30 (40%), 17/31 (55%), -38%, not calculated | tumour outcome (control, treated, inhibition, significance) (Carcinogen: DIMETHYLNITROSAMINE, 62-75-9, 0.6% IN DIET BEGINNING 2 WK POST CARCINOGEN DOSE AND CONTINUING FOR 26 WK (STUDY DURATION: 120 WK), Strain/Sex: WISTAR/MALE, Target Tissue: Type of Lesion: KIDNEY: EPITHELIAL TUMOR, Dose [Carcinogen]: 30 MG/KG ONCE): 19/30 (63%), 26/31 (84%), -33%, not calculated | tumour outcome (control, treated, inhibition, significance) (Carcinogen: DIMETHYLNITROSAMINE, 62-75-9, 0.6% IN DIET BEGINNING 2 WK POST CARCINOGEN DOSE AND CONTINUING FOR 26 WK (STUDY DURATION: 120 WK), Strain/Sex: WISTAR/MALE, Target Tissue: Type of Lesion: KIDNEY: MESENCHYMAL TUMOR, Dose [Carcinogen]: 30 MG/KG ONCE): 14/30 (47%), 14/31 (45%), 4%, not significant | tumour outcome (control, treated, inhibition, significance) (Carcinogen: DIMETHYLNITROSAMINE, 62-75-9, 0.6% IN DIET BEGINNING 2 WK POST CARCINOGEN DOSE AND CONTINUING FOR 26 WK (STUDY DURATION: 120 WK), Strain/Sex: WISTAR/MALE, Target Tissue: Type of Lesion: KIDNEY: TUMOR, Dose [Carcinogen]: 30 MG/KG ONCE): 26/30 (87%), 30/31 (97%), -11%, not significant
